Reference: patent US20230310462A1, “COMBINATION DRUG FOR THE CONTROL AND MANAGEMENT OF TYPE 2 DIABETES MELLITUS” (LABORATORIOS SILANES S.A. DE C.V., priority 2020, published 2023)

Legend:
[1] = according to biopharmaceutical classification; cited from earlier work
[2] = reported, in Mexican population; cited from earlier work
[3] = Single-dose crossover comparative bioavailability study, fixed combination vs co-administered reference drugs, plasma HPLC-MS/MS
Description: In another embodiment of the invention, bioavailability tests are performed to determine whether there are differences in the magnitude and rate of absorption between the test product of this invention (fixed dose combination) and co-administration of reference drugs that impact the bioavailability of the drugs upon administration.
On the other hand, the determination of the pharmacokinetic parameters of Cmax and area under the plasma concentration curve with respect to time (ABC0-t) are determined, which allow characterizing the bioavailability of the drug of this invention from its dosage form, in terms of speed and degree of respective absorption. Therefore, the purpose of the bioavailability tests is to determine if there are differences in the magnitude and speed of absorption between the test product of the present invention (fixed combination) and the co-administration of reference drugs that impact the bioavailability of the drugs when administered under fasting conditions.
A total of 44 healthy volunteers (27 men and 17 women) were randomized in the study. […] After a period of 7 half-lives, the pharmacokinetic effect of washout can be completely disregarded. Each volunteer received the treatments under study according to randomization.
The pharmacokinetic parameters were determined through independent model methods. Descriptive statistics are presented below in Tables 19-21.

SMILES | solubility [1] | elimination half-life [2] [h] | Intrasubject Variability Coefficient, Ln (ABC0-t) of glimepiride ([3]; both, human, in vivo) [%] | Intrasubject Variability Coefficient, Ln (Cmax) of glimepiride ([3]; both, human, in vivo) [%] | Intrasubject Variability Coefficient, Ln (Cmax) ([3]; both, human, in vivo) [%] | Intrasubject Variability Coefficient, Ln (ABC0-t) ([3]; vildagliptin pharmacokinetic parameter) [%]
CCC1=C(C)CN(C(=O)NCCc2ccc(S(=O)(=O)NC(=O)N[C@H]3CC[C@H](C)CC3)cc2)C1=O [glimepiride] | low | 7.5 ± 4 | 15.58 | 28.21 | – | –
N#C[C@@H]1CCCN1C(=O)CN[C@@]12C[C@@H]3C[C@@H](CC(O)(C3)C1)C2 [vildagliptin] | high | – | – | – | 19.12 | 9.14
